Data taken from patent US8637312B2, “Mammalian culture media with polyamine and iron” (Cellca GmbH, priority 2008, dated 2014).

Key:
rat hepatoma cells = settings: 100 μM in culture medium; Itoh et al. 1994; cited from earlier work
CHO DG44 host cell line [1] = experiment: High cell density fed-batch culture of antibody producing CHO clone, cell growth; type: cell-based, Chinese hamster; settings: for requirement for optimal cell growth: Example 6, FIG. 6, spermine with iron (III) citrate, iron (III) citrate supplemented at day 6 to 400 mg/l; for effect of spermine and iron together on cell growth: Example 1, FIG. 1, both at high concentration, feed media polyamine and iron free
Description: (§1) For all experiments a CHO DG44 host cell line (Urlaub and Chasin, Proc. Natl. Acad. Sci. USA, 1980, 77: 4216) was used. This host cell line was transfected with a vector carrying the gene of an IgG antibody. Transfectants were amplified using MTX in culture medium. An antibody producing clone was isolated and this clone was then used for all experiments.
(§2) Stock culture cells were kept in a shake flask or in a spinner flask. The stock culture was split into fresh culture medium every two or three days. That means, a small amount of cell culture was used as inoculum and transferred into a new flask and supplemented with fresh culture medium. Cells were cultured at 37° C. in CO2 atmosphere in an incubator. In this way cells were cultured in several passages. One passage is defined as a culture duration of 2-4 days. At different time points inoculum cells were taken from the stock culture and experiments were performed in various scales, for examples in 6-well plates, shake flasks, T-flasks, spinner flasks and bioreactors.
A basal medium as follows (in the following also termed proprietary culture medium) was used for cultivation of cells in all steps, e.g. in the stock culture, in the culture expansion step and in the production step. The basal medium contains all necessary substances for cell growth, cell viability and cellular productivity. The basal medium contains glucose at 1.0-6.0 g/l, NaCl 2.8-6.2 g/l, KCl 273-945 mg/l, CaCl2 48-290 mg/l, MgCl2 42-330 mg/l, NaH2PO4 56-1130 mg/l, Arginine 56-930 mg/l, Asparagine 44-900 mg/l, Aspartic acid 26-445 mg/l, Cysteine 35-270 mg/l, Glutamic acid 44-900 mg/, Glutamine 44-900 mg/l, Glycine 18-180 mg/l, Histidine 42-670 mg/l, Isoleucine 54-877 mg/l, Leucine 59-1250 mg/l, Lysine 73-1120 mg/l, Methionine 9-454 mg/l, Phenylalanine 35-677 mg/l, Proline 17-828 mg/l, Serine 26-1339 mg/l, Threonine 24-989 mg/l, Tryptophane 9-441 mg/l, Tyrosine 55-565 mg/l, Valine 52-787 mg/l, NaHCO3 2,4 g/l. The basal medium further comprises fatty acids and nucleotides. In all batch and fed-batch experiments the same proprietary culture medium and proprietary feed medium were used, unless otherwise stated. The feed medium used in fed-batch experiments (in the following also termed “proprietary feed medium”) has all necessary substances for cell growth, cell viability and cellular productivity, in particular salts, trace elements, carbohydrates, amino acids, fatty acids, pH regulator, nucleotides. Even though here a rich feed medium is used containing above mentioned substances, feed media must not comprise all of these components. Feed media consisting of one or more of above mentioned substances are suitable also. Both basal medium and feed medium are serum free, protein free, peptone free and peptide free. However, supplementation of media with one or more of above mentioned additives is possible. Thus, both media are chemically defined, consisting of only single, fully defined chemicals.
Experiments were performed either in batch or in fed-batch modus. If an experiment was designed for fed-batch modus, it was started by inoculating the flask with stock culture cells in the production medium (culture medium). Culture flasks were inoculated with an inoculation cell density of 2 to 4×10^5 viable cells per millilitre. Cells were cultured for 1 to 4 days. The culture was supplemented thereafter with a feed medium for first time. Feeding was done batch wise every 1 to 3 days. Feeding the culture with feed medium was performed batch wise (bolus addition). Feeding of culture can also be done continuously, especially in bioreactors. In fed-batch experiments two different feed media were used. However, it is possible to use one or more than two different feed media. The culture was incubated as long as the cell viability was greater than 50%. Thus, culture duration was approximately 10 to 18 days. Every day samples were taken from cultures and analytical processes were done, such as cell count and metabolite measurements. […]

CHO DG44 host cell line [2] = experiment: Batch culture of antibody producing CHO clone, cell growth; type: cell-based, Chinese hamster; settings: for effect of spermine and iron together on cell concentration: Example 5, FIG. 5, spermine with iron (III) nitrate nonahydrate, both at high concentration
Description: as §1, §2
A basal medium as follows (in the following also termed proprietary culture medium) was used for cultivation of cells in all steps, e.g. in the stock culture, in the culture expansion step and in the production step. The basal medium contains all necessary substances for cell growth, cell viability and cellular productivity. The basal medium contains glucose at 1.0-6.0 g/l, NaCl 2.8-6.2 g/l, KCl 273-945 mg/l, CaCl2 48-290 mg/l, MgCl2 42-330 mg/l, NaH2PO4 56-1130 mg/l, Arginine 56-930 mg/l, Asparagine 44-900 mg/l, Aspartic acid 26-445 mg/l, Cysteine 35-270 mg/l, Glutamic acid 44-900 mg/, Glutamine 44-900 mg/l, Glycine 18-180 mg/l, Histidine 42-670 mg/l, Isoleucine 54-877 mg/l, Leucine 59-1250 mg/l, Lysine 73-1120 mg/l, Methionine 9-454 mg/l, Phenylalanine 35-677 mg/l, Proline 17-828 mg/l, Serine 26-1339 mg/l, Threonine 24-989 mg/l, Tryptophane 9-441 mg/l, Tyrosine 55-565 mg/l, Valine 52-787 mg/l, NaHCO3 2,4 g/l. The basal medium further comprises fatty acids and nucleotides. In all batch and fed-batch experiments the same proprietary culture medium and proprietary feed medium were used, unless otherwise stated. The feed medium used in fed-batch experiments (in the following also termed “proprietary feed medium”) has all necessary substances for cell growth, cell viability and cellular productivity, in particular salts, trace elements, carbohydrates, amino acids, fatty acids, pH regulator, nucleotides. Even though here a rich feed medium is used containing above mentioned substances, feed media must not comprise all of these components. Feed media consisting of one or more of above mentioned substances are suitable also. Both basal medium and feed medium are serum free, protein free, peptone free and peptide free. […]

[3] = oligopeptide-free medium; WO 2007/077217; cited from earlier work
[4] = system: BHK (baby hamster kidney) cells; settings: adherent growing BHK cells, serum containing medium; Brunton et al. 1991; cited from earlier work
[5] = system: CHO (Chinese hamster ovary) cells; settings: 10 μM ferric iron plus spermine 0 to 100 μM, serum containing medium; Gaboriau et al. 2004; cited from earlier work
[6] = Example 8, FIG. 8, in the presence of spermine

[Fe+3] [ferric (Fe^3+) iron]
mitochondrial DNA damage (rat hepatoma cells): damaged

[Fe+2] [ferrous (Fe^2+)]
mitochondrial DNA damage (rat hepatoma cells): damaged

O=C([O-])CC(O)(CC(=O)[O-])C(=O)[O-].[Fe+3] [iron (III) citrate]
requirement for optimal cell growth (CHO DG44 host cell line [1]): required

O.O.O.O.O.O.O.O.O.O=[N+]([O-])[O-].O=[N+]([O-])[O-].O=[N+]([O-])[O-].[Fe+3] [iron (III) nitrate nonahydrate]
effect of spermine and iron together on cell concentration (CHO DG44 host cell line [2]): synergistic effects

O=P([O-])([O-])[O-].[Fe+3] [iron (III) phosphate]
effect of high iron concentration on cell growth (CHO DG44 host cell line [1]; [6]): promotes cell growth
toxicity of high iron concentration to the cells (CHO DG44 host cell line [1]; [6]): not toxic

NCCCCN [putrescine]
efficiency among amines in promoting cell specific productivity [3]: most efficient amine

NCCCCNCCCN [spermidine]
cell concentration reached (CHO DG44 host cell line [2]; Example 2, FIG. 2, 100 mg/l iron (III) pyrophosphate hydrate, with versus without spermidine): higher concentration
toxicity of spermidine (CHO DG44 host cell line [2]; Example 2, FIG. 2, tested high concentrations, 100 mg/l iron (III) pyrophosphate hydrate): not visible

NCCCNCCCCNCCCN [spermine]
effect of spermine and iron together on cell growth (CHO DG44 host cell line [1]): synergistic effect
cell growth with increasing spermine concentration (CHO DG44 host cell line [1]; Example 3, FIG. 3, 100 mg/l iron (III) pyrophosphate hydrate in medium, 800 mg/l in feed): grow better
requirement for optimal cell growth (CHO DG44 host cell line [1]): required
effect of spermine on cell growth (CHO DG44 host cell line [1]; Example 7, FIG. 7, iron (III) citrate as iron source, feed 3200 mg/l iron (III) citrate): positive effect
effect of spermine on cell growth (CHO DG44 host cell line [1]; Example 8, FIG. 8, iron (III) phosphate as iron source, feed 800 mg/l iron (III) phosphate): positive effect
effect of spermine and iron together on cell concentration (CHO DG44 host cell line [2]): synergistic effects
toxicity to cells [4]: toxic
number of viable cells [5]: decreases the number of viable cells in a dose-dependent manner
cellular productivity on increasing concentration above 2 mg/l [3]: does not significantly increase

iron
need of iron for cell growth (CHO DG44 host cell line [1]; Example 1, FIG. 1): essential
effect of spermine and iron together on cell growth (CHO DG44 host cell line [1]): synergistic effect

iron dextran
effect of high iron concentration on cell growth (CHO DG44 host cell line [1]; Example 9, FIG. 9, 40 mg/l spermine, iron dextran fed at day 6 to 250 mg/l): promotes cell growth
